Results published in patent US7820706B2, “Multiple dose aromatase inhibitor for treating infertility” (Ares Trading S.A., priority 2001, dated 2010).
Counter-ions that a name gives are not always drawn. Like-named read-outs stand apart in the source and are kept apart here.

How the values were obtained:
[1] = tested on: patients who failed to ovulate or ovulated with endometrial thickness <5 mm in response to CC
Protocol: HCG 10,000 IU was given to trigger ovulation. CC was given in a dose of 50-100 mg on days 3-7 or 5-9.

[2] = tested on: anovulatory women; details: cited from earlier work
[3] = tested on: endometrium of normal women; details: morphometric analysis; cited from earlier work
[4] = tested on: patients who failed to ovulate or ovulated with endometrial thickness <5 mm in response to CC; test: Example 1: letrozole for ovulation induction after CC failure; assay type: in vivo, human
Description: HCG 10,000 IU was given to all except one patient to trigger ovulation. Ten patients completed 12 cycles (one patient completed three cycles).

[5] = biological target: T1, aromatase (Rattus norvegicus, UniProt P22443); details: given orally; cited from earlier work
T1 sequence (P22443 1-508): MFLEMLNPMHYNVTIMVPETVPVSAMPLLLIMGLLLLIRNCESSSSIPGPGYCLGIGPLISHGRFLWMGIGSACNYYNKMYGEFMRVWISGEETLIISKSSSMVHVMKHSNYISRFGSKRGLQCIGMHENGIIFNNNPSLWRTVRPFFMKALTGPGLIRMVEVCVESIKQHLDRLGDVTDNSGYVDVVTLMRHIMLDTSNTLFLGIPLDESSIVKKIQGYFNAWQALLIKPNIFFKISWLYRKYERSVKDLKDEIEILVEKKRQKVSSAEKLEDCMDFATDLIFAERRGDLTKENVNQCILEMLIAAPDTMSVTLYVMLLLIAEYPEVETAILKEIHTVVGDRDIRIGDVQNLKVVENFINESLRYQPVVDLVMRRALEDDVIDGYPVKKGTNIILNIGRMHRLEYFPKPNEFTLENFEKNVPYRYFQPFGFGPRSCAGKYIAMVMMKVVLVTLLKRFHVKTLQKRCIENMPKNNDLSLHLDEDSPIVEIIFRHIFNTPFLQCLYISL

[6] = tested on: mature female rats; details: cited from earlier work
[7] = oral, healthy postmenopausal women; cited from earlier work
[8] = in vivo; cited from earlier work
[9] = tested on: women with PCOS; ovulatory women; details: cited from earlier work
[10] = tested on: ovulatory women with unexplained infertility and anovulatory women with PCOS; details: cited from earlier work
[11] = tested on: mice; details: mouse, in vivo; cited from earlier work
[12] = tested on: rats; details: rat, in vivo; cited from earlier work
[13] = tested on: patients with PCOS with inadequate response to CC; details: cited from earlier work
[14] = tested on: postmenopausal breast cancer patients; details: lethargy, rashes, nausea and fever; cited from earlier work
[15] = biological target: T2, aromatase (Homo sapiens, UniProt P11511); details: cited from earlier work
T2 sequence (P11511 1-503): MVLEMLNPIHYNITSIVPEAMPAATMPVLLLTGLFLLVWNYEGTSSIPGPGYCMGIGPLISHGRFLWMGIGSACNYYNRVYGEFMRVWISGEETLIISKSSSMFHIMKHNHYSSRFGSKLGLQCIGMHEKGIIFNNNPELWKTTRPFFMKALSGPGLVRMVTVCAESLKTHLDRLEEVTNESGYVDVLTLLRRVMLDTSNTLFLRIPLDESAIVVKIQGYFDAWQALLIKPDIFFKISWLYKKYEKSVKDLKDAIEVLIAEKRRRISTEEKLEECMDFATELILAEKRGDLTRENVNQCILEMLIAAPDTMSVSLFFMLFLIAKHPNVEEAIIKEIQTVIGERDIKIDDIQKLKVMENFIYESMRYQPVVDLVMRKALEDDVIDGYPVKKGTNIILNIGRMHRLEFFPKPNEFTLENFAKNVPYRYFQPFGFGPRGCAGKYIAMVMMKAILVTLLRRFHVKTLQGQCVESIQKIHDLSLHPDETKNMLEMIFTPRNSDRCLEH

CCN(CC)CCOc1ccc(C(=C(Cl)c2ccccc2)c2ccccc2)cc1 [CC, clomiphene citrate]
Day of hCG administration ([1]; mean): 12.6 | Endometrial Thickness ([1]; mean): 0.5 Cm. | Estradiol on day of hCG administration ([1]; mean): 2145 pmol/L | Estradiol per mature follicle ([1]; mean): 1278 pmol/L | Follicles >1.5 Cm on day of hCG administration ([1]; mean): 1.9 | LH on day of hCG administration ([1]; mean): 16 IU/L | Number of Days from last letrozole tablet to HCG day ([1]; mean): 4.4 | Day of hCG administration ([1]; median): 12 | Endometrial Thickness ([1]; median): 0.4 Cm. | Estradiol on day of hCG administration ([1]; median): 1668 pmol/L | Estradiol per mature follicle ([1]; median): 1486 pmol/L | Follicles >1.5 Cm on day of hCG administration ([1]; median): 2 | LH on day of hCG administration ([1]; median): 8 IU/L | Number of Days from last letrozole tablet to HCG day ([1]; median): 4 | Day of hCG administration ([1]; range): 11-16 | Endometrial Thickness ([1]; range): 0.4-0.8 Cm. | Estradiol on day of hCG administration ([1]; range): 362 to 5210 pmol/L | Estradiol per mature follicle ([1]; range): 177 to 2404 pmol/L | Follicles >1.5 Cm on day of hCG administration ([1]; range): 1-5 | LH on day of hCG administration ([1]; range): 3-66 IU/L | Number of Days from last letrozole tablet to HCG day ([1]; range): 2-7 | anovulatory women resistant to CC who fail to ovulate ([2]; doses up to 150 mg daily): 20% to 25% | women who do not ovulate with CC ([2]; in vivo): 20 to 25% | effect on the endometrium (glandular density, vacuolated cells) [3]: deleterious effect on the endometrium

N#Cc1ccc(C(c2ccc(C#N)cc2)n2cncn2)cc1 [letrozole]
pregnancy, patients ([4]; 4 out of 10 patients): 40% | ovulation, cycles ([4]; 9 of 12 cycles, 2.5 to 5 mg/day): 75% | Endometrial Thickness ([4]; mean): 0.8 Cm. | Estradiol on day of HCG admin. ([4]; mean): 1036 pmol | Endometrial Thickness ([4]; median): 0.8 Cm. | Estradiol on day of HCG admin. ([4]; median): 988 pmol | Endometrial Thickness ([4]; range): 0.6-0.9 Cm. | Follicles >1.5 Cm On day of HCG admin. ([4]; range): 1-3 | pregnancy, patients ([1]; 5 out of 15 patients): 33% | ovulation, cycles ([1]; 13 of 17 letrozole cycles): 77% | Endometrial Thickness ([1]; mean): 0.8 Cm. | Estradiol per mature follicle ([1]; mean): 392 pmol/L | Number of Days from last letrozole tablet to HCG day ([1]; mean): 6.7 | Endometrial Thickness ([1]; median): 0.8 Cm. | Estradiol per mature follicle ([1]; median): 289 pmol/L | Number of Days from last letrozole tablet to HCG day ([1]; median): 7 | Endometrial Thickness ([1]; range): 0.6-1.1 Cm. | Estradiol per mature follicle ([1]; range): 107 to 837 pmol/L | Number of Days from last letrozole tablet to HCG day ([1]; range): 2-9 | ED50 in vivo [5]: 1 to 3 µg/kg | FSH and LH [6]: increased FSH and LH | increase in ovarian weight [6]: ~30% | half-life [7]: approximately 45 hours | doses well tolerated [8]: up to 30 mg | pregnancy, patients ([9]; PCOS group, 3 patients): 25% | ovulation, cycles ([9]; PCOS group, 9 of 12 cycles): 75% | pregnancy, patients ([9]; ovulatory group, one patient): 10% | mean endometrial thickness ([9]; ovulatory group): 0.8 cm | mean number of mature follicles ([9]; ovulatory group): 2.3 | FSH dose required for adequate ovarian super ovulation ([10]; letrozole in conjunction with FSH): significantly lower FSH dose | ovarian response to FSH stimulation ([10]; low responders during ovarian stimulation): improvement in ovarian response to FSH stimulation | lethal dose [11]: approximately 2000 mg/kg | lethal dose [12]: approximately 2000 mg/kg | ovulation, letrozole treated cycles ([13]; 7 of the 10 cycles, PCOS): 70% | mean number of mature follicles ([13]; 7 ovulatory cycles, mean): 2.6 | number of mature follicles, range ([13]; 7 ovulatory cycles, range): 1 to 4 follicles | mean estradiol per follicle ([13]; mean): 378 pmol/L | chemical pregnancy ([13]; of 10 PCOS patients): one | clinical pregnancy ([13]; of 10 PCOS patients): 2 patients

CCC1(c2ccc(N)cc2)CCC(=O)NC1=O (centres unmarked) [aminoglutethimide]
patients stopping treatment because of side effects [14]: 8-15%

CC(C)(C#N)c1cc(Cn2cncn2)cc(C(C)(C)C#N)c1 [anastrozole]
in vivo inhibition of aromatase [15]: 97%
